In patent publication US6849632B2, “Heteroaryl alkyl piperazine derivatives” (CV Therapeutics, Inc., priority 2000, dated 2005):
Values joined by “and” are separate entries in the source; they are usually repeats but may differ in a detail not shown here. Identical values can stand only once.

tested on: mitochondrial fatty acid oxidation using palmitoyl CoA as substrate; assay: Palmitoyl CoA oxidation in isolated rat heart mitochondria; format: biochemical; details: Table IA, read-out: Effect on Palmitoyl CoA Oxidation (IC50)
Description: Rat heart mitochondria were isolated by the method of Nedergard and Cannon (Methods in Enzymol. 55, 3, 1979). Palmitoyl CoA oxidation—The Palmityl CoA oxidation was carried out in a total volume of 100 micro liters containing the following agents: 110 mM KCl, 33 mM Tris buffer at pH 8, 2 mM KPi, 2 mM MgCl2, 0.1 mM EDTA, 14.7 microM defatted BSA, 0.5 mM malic acid, 13 mM carnitine, 1 mM ADP, 52 micrograms of mitochondrial protein, and 16 microM 1-C14 palmitoyl CoA (Sp. Activity 60 mCi/mmole; 20 microCi/ml, using 5 microliters per assay). The compounds of this invention were added in a DMSO solution at the following concentrations: 100 microM, and 50 microM. In each assay, a DMSO control was used. After 15 min at 30° C., the enzymatic reaction was centrifuged (20,000 g for 1 min), and 70 microliters of the supernatant was added to an activated reverse phase silicic acid column (approximately 0.5 ml of silicic acid). The column was eluted with 2 ml of water, and 0.5 ml of the eluent was used for scintillation counting to determine the amount of C^14 trapped as C^14 bicarbonate ion.

Compound | IC50
2-(4-{(2S)-3-[2-(4-chlorophenyl)benzoxazol-5-yloxy]-2-hydroxypropyl}piperazinyl)-N-[2-(hydroxymethyl)-6-methylphenyl]acetamide | 12 µM and 20 µM
2-(4-{(2S)-3-[2-(4-chlorophenyl)benzoxazol-5-yloxy]-2-hydroxypropyl}piperazinyl)-N-[4-(trifluoromethyl)phenyl]acetamide | 12.9 µM
2-((3S)-4-{(2S)-3-[2-(2-chlorophenyl)benzoxazol-5-yloxy]-2-hydroxy-propyl}-3-methylpiperazinyl)-N-(2,6-dimethylphenyl)acetamide | 19 µM
2-((3S)-4-{(2S)-3-[2-(3-fluorophenyl)benzoxazol-5-yloxy]-2-hydroxy-propyl}-3-methylpiperazinyl)-N-(2,6-dimethylphenyl)acetamide | 16 µM
2-{4-[(2R)-2-hydroxy-3-(2-methylbenzothiazol-5-yloxy)propyl]-3,3-dimethylpiperazinyl}-N-(2,6-dimethylphenyl)acetamide | 0.45 µM
2-{4-[(2S)-2-hydroxy-3-(2-methylbenzothiazol-5-yloxy)propyl]piperazinyl}-N-(3-phenoxyphenyl)acetamide | 0.39 µM
2-{4-[(2S)-2-hydroxy-3-(2-methylbenzothiazol-5-yloxy)propyl]piperazinyl}-N-(4-methylphenyl)acetamide | 1.7 µM
2-{4-[(2S)-2-hydroxy-3-(2-methylbenzothiazol-5-yloxy)propyl]piperazinyl}-N-(4-phenylphenyl)acetamide | 0.46 µM
2-{4-[(2S)-2-hydroxy-3-(2-methylbenzothiazol-5-yloxy)propyl]piperazinyl}-N-[4-(4-chlorophenoxy)phenyl]acetamide | 2 µM
2-{4-[(2S)-2-hydroxy-3-(2-methylbenzothiazol-5-yloxy)propyl]piperazinyl}-N-[4-(trifluoromethyl)phenyl]acetamide | 7.6 µM
2-{4-[(2S)-2-hydroxy-3-(2-methylbenzothiazol--yloxy)propyl]piperazinyl}-N-(4-phenoxyphenyl)acetamide | 0.33 µM
2-{4-[(2S)-2-hydroxy-3-(2-phenylbenzoxazol-5-yloxy)propyl]piperazinyl}-N-(3-phenylphenyl)acetamide | 26 µM
2-{4-[(2S)-2-hydroxy-3-(2-phenylbenzoxazol-5-yloxy)propyl]piperazinyl}-N-(4-phenoxyphenyl)acetamide | 11.3 µM
2-{4-[(2S)-3-(2-cyclohexylbenzothiazol-5-yloxy)-2-hydroxypropyl]piperazinyl}-N-(2,6-dimethylphenyl)acetamide | 6.5 µM
2-{(3S)-4-[(2S)-2-hydroxy-3-(2-methylbenzothiazol-5-yloxy)propyl]-3-methylpiperazinyl}-N-(4-cyanophenyl)acetamide | 0.41 µM
Cc1cccc(C)c1NC(=O)CN1CCN(C[C@H](O)COc2ccc3oc(-c4cccc(C(F)(F)F)c4)nc3c2)CC1 [2-[4-((2S)-2-hydroxy-3-{2-[3-(trifluoromethyl)phenyl]benzoxazol-5-yloxy}propyl)piperazinyl]-N-(2,6-dimethylphenyl)acetamide] | 13 µM
Cc1nc2cc(OC[C@H](O)CN3CCN(CC(=O)Nc4c(C)cccc4C)C[C@@H]3C)ccc2s1 [2-{4-[(2R)-2-hydroxy-3-(2-methylbenzothiazol-5-yloxy)propyl](3S)-3-methylpiperazinyl}-N-(2,6-dimethylphenyl)acetamide] | 5 µM
Cc1nc2cc(OC[C@H](O)CN3CCN(CC(=O)Nc4c(C)cccc4C)CC3)ccc2s1 [2-{4-[(2R)-2-hydroxy-3-(2-methylbenzothiazol-5-yloxy)propyl]piperazinyl}-N-(2,6-dimethylphenyl)acetamide] | 4 µM
Cc1nc2cc(OC[C@@H](O)CN3CCN(CC(=O)Nc4c(C)cccc4C)CC3)ccc2s1 [2-{4-[(2S)-2-hydroxy-3-(2-methylbenzothiazol-5-yloxy)propyl]piperazinyl}-N-(2,6-dimethylphenyl)acetamide] | 8 µM
